In ChEMBL document CHEMBL3351921, “Structure-activity relationships (SAR) and structure-kinetic relationships (SKR) of pyrrolopiperidinone acetic acids as CRTh2 antagonists” (Bioorg Med Chem Lett, 2014):

Tests used:
[1] = molecular target: T1, Prostaglandin D2 receptor 2 (Homo sapiens) (UniProt Q9Y5Y4); details: CHO.K1
T1 sequence (whole entry): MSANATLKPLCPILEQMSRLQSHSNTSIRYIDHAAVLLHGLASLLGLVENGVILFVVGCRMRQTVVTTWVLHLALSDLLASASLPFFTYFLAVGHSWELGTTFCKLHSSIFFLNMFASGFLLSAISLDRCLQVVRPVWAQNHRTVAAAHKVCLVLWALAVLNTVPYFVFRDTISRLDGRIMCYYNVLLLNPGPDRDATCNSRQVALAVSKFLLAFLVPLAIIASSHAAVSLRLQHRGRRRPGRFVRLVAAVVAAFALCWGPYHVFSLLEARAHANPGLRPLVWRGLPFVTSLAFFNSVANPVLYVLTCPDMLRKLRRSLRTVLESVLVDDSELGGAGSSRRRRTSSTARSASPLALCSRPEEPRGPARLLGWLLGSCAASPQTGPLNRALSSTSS
Description: Antagonist activity at CRTh2 (unknown origin) stably expressed in PGD2-stimulated CHO.K1 cells assessed as dissociation half-life at 5 to 10 times IC50 after 2 hrs by radio-labelled [35S]-GTPgammaS binding assay

[2] = molecular target: T2, Prostaglandin D2 receptor 2 (Homo sapiens, UniProt Q9Y5Y4); test: Antagonist activity at CRTh2 (unknown origin) stably expressed in PGD2-stimulated CHO.K1 cells preincubated for 1 hr by radio-labelled [35S]-GTPgammaS binding assay; format: functional, cell-based
T2 sequence (Q9Y5Y4 whole entry): T1 sequence (whole entry)

[3] = Volume of distribution at steady state in rat at 1 mg/kg, iv; format: ADME, organism-based; parameters: dose 1 mg/kg, route intravenous; details: in vivo, read-out: Vdss
[4] = molecular target: T3, Thromboxane A2 receptor (Homo sapiens) (UniProt P21731); test: Inhibition of at prostanoid TP receptor (unknown origin) at 10 uM
T3 sequence (whole entry): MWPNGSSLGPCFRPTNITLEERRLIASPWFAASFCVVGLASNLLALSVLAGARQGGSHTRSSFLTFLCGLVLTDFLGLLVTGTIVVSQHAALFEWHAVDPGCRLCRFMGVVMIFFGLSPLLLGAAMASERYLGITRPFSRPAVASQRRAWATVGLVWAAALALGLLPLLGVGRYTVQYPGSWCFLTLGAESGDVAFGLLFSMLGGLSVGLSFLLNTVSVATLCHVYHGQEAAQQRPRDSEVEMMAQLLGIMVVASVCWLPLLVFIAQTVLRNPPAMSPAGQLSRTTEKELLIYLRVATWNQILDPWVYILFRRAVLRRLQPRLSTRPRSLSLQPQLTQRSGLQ

[5] = molecular target: T4, Prostaglandin D2 receptor (Homo sapiens) (UniProt Q13258); test: Inhibition of at prostanoid DP1 receptor (unknown origin) at 10 uM
T4 sequence (whole entry): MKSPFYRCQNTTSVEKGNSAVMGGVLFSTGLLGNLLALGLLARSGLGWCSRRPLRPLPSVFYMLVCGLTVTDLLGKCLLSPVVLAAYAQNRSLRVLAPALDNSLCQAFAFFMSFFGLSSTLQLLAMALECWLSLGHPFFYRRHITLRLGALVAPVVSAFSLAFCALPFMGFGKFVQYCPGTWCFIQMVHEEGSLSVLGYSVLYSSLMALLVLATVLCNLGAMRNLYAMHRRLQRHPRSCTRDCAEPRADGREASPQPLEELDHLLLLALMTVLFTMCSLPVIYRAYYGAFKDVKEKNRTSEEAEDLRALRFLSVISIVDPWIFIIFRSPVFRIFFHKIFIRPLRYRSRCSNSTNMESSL

[6] = Cmax in rat at 1 mg/kg, iv; format: ADME, organism-based; parameters: dose 1 mg/kg, route intravenous; details: in vivo
[7] = Terminal half life in rat at 1 mg/kg, iv; format: ADME, organism-based; parameters: dose 1 mg/kg, route intravenous; details: in vivo, read-out: beta t1/2 (converted)
[8] = AUC (0 to infinity) in rat at 10 mg/kg, po; format: ADME, organism-based; parameters: time infinity, dose 10 mg/kg, route oral; details: plasma
[9] = AUC (0 to infinity) in rat at 1 mg/kg, iv; format: ADME, organism-based; parameters: time infinity, dose 1 mg/kg, route intravenous; details: plasma
[10] = Clearance in rat at 1 mg/kg, iv; format: ADME, organism-based; parameters: dose 1 mg/kg, route intravenous; details: in vivo
[11] = Terminal half life in rat at 10 mg/kg, po; format: ADME, organism-based; parameters: dose 10 mg/kg, route oral; details: in vivo, read-out: beta t1/2 (converted)
[12] = Cmax in rat at 10 mg/kg, po; format: ADME, organism-based; parameters: dose 10 mg/kg, route oral; details: in vivo
[13] = Oral bioavailability in rat at 10 mg/kg; format: ADME, organism-based; details: in vivo
[14] = Apparent permeability across apical to basolateral side of human Caco2 cells at pH 7.4; format: ADME, cell-based; details: Caco-2, pH 7.4
[15] = Dissociation constant, pKa of the compound by potentiometric method; format: physicochemical

Row | T1/2 [1] [h] | IC50 [2] [µM] | SMILES | also measured
1 | 3.3 | 0.0033 | Cc1c(Cc2ccccc2S(=O)(=O)c2ccc(F)cc2)c2c(n1CC(=O)O)CCNC2=O | Vd [3]: 0.19 L/kg; inhibition [4]: < 30%; inhibition [5]: < 30%; Cmax [6]: 5740 ng/mL; half-life [7]: 2.2 h; AUC(0-inf) [8]: 380 ng·h/mL; AUC(0-inf) [9]: 2460 ng·h/mL; clearance [10]: 6.8 mL/min/kg; half-life [11]: 5.6 h; Cmax [12]: 102 ng/mL; bioavailability [13]: 1.5%
2 | 1.1 |  | Cc1c(Cc2ccccc2S(=O)(=O)c2ccccc2F)c2c(n1CC(=O)O)CCNC2=O | 
3 |  | 4.5 | COc1cccc(S(=O)(=O)c2ccccc2)c1Cc1c2c(n(CC(=O)O)c1C)CCNC2=O | 
4 |  | 0.53 | Cc1c(Cc2ccccc2Oc2ccccc2)c2c(n1CC(=O)O)CCNC2=O | 
5 | 0.9 | 0.003 | Cc1c(Cc2ccc(S(=O)(=O)Cc3ccccc3)cc2)c2c(n1CC(=O)O)CCNC2=O | 
6 | 0.9 |  | Cc1c(Cc2ccc(C(F)(F)F)cc2S(=O)(=O)c2ccccc2)c2c(n1CC(=O)O)CCNC2=O | inhibition [4]: < 30%; inhibition [5]: < 30%
7 | 0.8 |  | Cc1c(Cc2ccccc2S(=O)(=O)c2cccc(F)c2)c2c(n1CC(=O)O)CCNC2=O | inhibition [4]: < 30%; inhibition [5]: < 30%
8 |  | 0.24 | CNC(=O)c1cccc(S(=O)(=O)c2ccccc2Cc2c3c(n(CC(=O)O)c2C)CCNC3=O)c1 | 
9 | 1.2 | 0.0085 | Cc1c(Cc2ccccc2S(=O)(=O)c2ccc(Cl)cc2)c2c(n1CC(=O)O)CCNC2=O | 
10 | 4.6 | 0.01 | CNC(=O)c1ccc(Cc2c3c(n(CC(=O)O)c2C)CCNC3=O)c(S(=O)(=O)c2ccccc2)c1 | 
11 | 1.2 |  | Cc1c(Cc2ccccc2S(=O)(=O)c2cccc(Cl)c2)c2c(n1CC(=O)O)CCNC2=O | inhibition [4]: < 30%; pKa [15]: 3.1; inhibition [5]: < 30%
12 | 5.7 |  | Cc1c(Cc2cc(Br)ccc2S(=O)(=O)c2ccccc2)c2c(n1CC(=O)O)CCNC2=O | 
13 |  | 0.019 | Cc1c(Cc2ccc(C(=O)O)cc2S(=O)(=O)c2ccccc2)c2c(n1CC(=O)O)CCNC2=O | 

Further lines, the compound ahead of its results:

Row | SMILES | T1/2 [1] [h] | IC50 [2] [µM] | also measured
14 | Cc1c(Cc2ccccc2S(=O)(=O)c2ccccc2)c2c(Cl)nccc2n1CC(=O)O | 2 | 0.016 | 
15 | Cc1c(Cc2ccccc2S(=O)(=O)c2ccccc2)c2c(=O)n(C(F)F)ccc2n1CC(=O)O | 21 | 0.0022 | inhibition [4]: < 30%; inhibition [5]: < 30%; Papp A→B [14]: 0.4 ×10⁻⁶ cm/s
16 | CCS(=O)(=O)c1ccccc1Cc1c2c(n(CC(=O)O)c1C)CCNC2=O |  | 0.55 | 
17 | Cc1c(Cc2ccccc2S(=O)(=O)c2ccccc2)c2c(=O)n(C)ccc2n1CC(=O)O | 8 |  | inhibition [4]: < 30%; inhibition [5]: < 30%; Papp A→B [14]: 0.1 ×10⁻⁶ cm/s
18 | Cc1c(Cc2ccccc2C(O)c2ccccc2)c2c(n1CC(=O)O)CCNC2=O (configuration not stated) | 0.4 | 0.032 | pKa [15]: 3.1
19 | Cc1c(Cc2ccccc2S(=O)(=O)c2ccc(F)cc2)c2c(n1CC(=O)O)CC(C)(C)NC2=O | 18 |  | 
20 | Cc1c(Cc2ccccc2C(=O)c2ccccc2)c2c(n1CC(=O)O)CCNC2=O |  | 0.81 | 
21 | COc1ccc(S(=O)(=O)c2ccc(F)cc2)c(Cc2c3c(n(CC(=O)O)c2C)CC(C)(C)NC3=O)c1 | 20 | 0.005 | 
22 | Cc1c(Cc2ccccc2S(=O)(=O)c2ccccc2)c2c(n1CC(=O)O)CCN(C(C)C(F)(F)F)C2=O (configuration not stated) | 2.1 | 0.006 | Papp A→B [14]: 0.6 ×10⁻⁶ cm/s
